In US20050075398A1, “Neuroprotectin D1 protects against cellular apoptosis, stroke damage, alzheimer's disease and retinal diseases” (priority 2003, published 2005):
“Also recorded” adds a separate entry of the source.

Columns and labels:
[1] = system: STAT-1; assay: EMSA of STAT-1 in IL-1β-exposed human neural progenitor cells; assay type: cell-based; conditions: HN progenitor cells
Method: Human neural (HN) progenitor cells in primary culture. HN cells were grown to ˜70% confluence (˜50,000 cells per 3.5-cm diameter well) in 6-well COSTAR plates at 37° C., 5% CO2/20% O2/75% N2 in humidified air at 1 atm (normoxic conditions) in NPMM medium (Clonetics CC-4241) supplemented with hFGF, NSF-1, hEGF, GA-1000, as described by the manufacturer (Clonetics, Walkersville, Md.). HN cells tested negative for HIV-1, hepatitis B and C, mycoplasma, bacteria, yeast, and fungi, and positive for the glial and neuronal markers GFAP, MAP2, and β-tubulin III (Clonetics). […]
Electrophoretic mobility-shift assay (EMSA) of human AP1, HIF-1α, NF-κBp50/p65, and STAT-1α. Nuclear protein extracts (NPXTs) were prepared from one to three 3.5 cm-diameter wells of HN cells and quantitated. NPXTs (5 μg) derived from HN cells were incubated with[γ-^32P]-ATP (˜3000 Ci/mmol)-end-labeled AP1, HIF-1α, NF-κκBp50/p65, or STAT-1α consensus and mutant oligonucleotides in 5-μl volumes, reacted for 30 min on ice, analyzed on 5% or 10% acrylamide/90 mM Tris-borate pH 8.4, 1 mM EDTA (TBE) gels, dried onto 2-mm Whatman filter paper at 80° C. for 2 h, and phosphorimaged using a Typhoon Variable Mode Imager (Amersham Pharmacia Biotech, Piscataway, N.J. ).

[2] = system: COX-2 mRNA; assay: COX-2 mRNA in IL-1β-exposed human neural progenitor cells; assay type: cell-based; conditions: p<0.05
Method: Human neural (HN) progenitor cells in primary culture. HN cells were grown to ˜70% confluence (˜50,000 cells per 3.5-cm diameter well) in 6-well COSTAR plates at 37° C., 5% CO2/20% O2/75% N2 in humidified air at 1 atm (normoxic conditions) in NPMM medium (Clonetics CC-4241) supplemented with hFGF, NSF-1, hEGF, GA-1000, as described by the manufacturer (Clonetics, Walkersville, Md.). HN cells tested negative for HIV-1, hepatitis B and C, mycoplasma, bacteria, yeast, and fungi, and positive for the glial and neuronal markers GFAP, MAP2, and β-tubulin III (Clonetics). After two weeks of development, HN cells were exposed to human recombinant interleukin 1-beta (IL-1β) (10 ng/ml) for 3 h in the presence or absence of 0.03, 0.3, 3.0, 30, and 300 nM 10,17S-docosatriene (NPD1), DHA, or PBS pH 7.4 (control). RNA and protein were quickly isolated using Trizol Reagent (Invitrogen, Carlsbad, Calif.) and stored at −81° C. within minutes of isolation.
COX-2 RNA abundance in hippocampus and HN cells. Abundance of human-specific COX-1 and COX-2 RNA message was assayed using RT-PCR as described in Bazan, N. G., and Lukiw, W. J. (2002) J. Biol. Chem. 277, 30359-30367.

[3] = system: ARPE-19 cells; assay: Hoechst staining, TNFα/H2O2 oxidative stress-induced apoptosis; assay type: cell-based, human
Method: ARPE-19 cell culture and chemicals: ARPE-19 cells (L. M. Hjelmeland, ATCC # CRL-2302) were grown and maintained in DMEM-F12 medium supplemented with 10% FBS and incubated at 37° C. with a constant supply of 5% CO2. ARPE-19 cells are spontaneously transformed human retinal pigment epithelial cells that conserve cellular biological and functional properties. All chemicals were purchased from Sigma Chemical Co. (St. Louis, Mo.) unless otherwise indicated.
Hoechst staining: ARPE-19 cells were loaded with 2 μM Hoechst dissolved in a Locke's solution (Promega, Madison, Wis.) and incubated one h at 37° C. before imaging. Cells were then washed once with PBS and viewed using a Nikon DIAPHOT 200 microscope under UV fluorescence. Images were recorded by a Hamamatsu Color Chilled 3CCD camera and Photoshop 5.0 software, as described in Mukherjee, P. K., DeCoster, M. A., Campbell, F. Z., Davis, R. J. & Bazan, N. G. (1999) J. Biol. Chem. 274:6493-6498.
Several experimental conditions that result in reproducible oxidative-stress-induced apoptosis in ARPE-19 cells were tested. One condition chosen was the combination of TNFα with H2O2, both in relatively low concentrations. Typically 10 ng/ml of TNFα and 400-800 μM H2O2 led to marked increase in Hoechst-positive cells (Data not shown). Neither TNFα nor H2O2 alone triggered a significant effect under these conditions. (Data not shown).
Serum starvation made ARPE-19 cells more sensitive to oxidative stress-triggered apoptosis induced by TNFα/H2O2. Cells were grown in culture for 72 h in the presence of BSA (3.35 μM) with or without DHA (6.7 μM). Endogenous NPD1 formation was enhanced by BSA-DHA (FIG. 12A).
In the next experiment, confluent cells were starved for 8 h, then TNFα/H2O2 was added and incubated for 14 h before staining with Hoechst reagent. NPD1 (50 nM) was added at the time of adding TNFα/H2O2. […] When the TNFα concentration (10 ng/ml) was maintained and H2O2 concentration was decreased from 800 to 400 μM, fewer Hoechst-positive cells were seen. […] (Data not shown).

[4] = system: ARPE-19 cells; assay: DNA fragmentation by differential sedimentation after 3H-thymidine labeling; assay type: cell-based, human; conditions: 50 nM; TNF-α 10 ng and H2O2 800 μM for 6-8 h
Method: DNA fragmentation assay: Cells (80% confluent) growing in DMEM (10% FBS) in 6-well plates were labeled with 1 μCi ^3H-thymidine per well for 24 h at 37° C. The day-old medium was replaced to remove the unincorporated ^3H-thymidine. Cells were then serum-starved for 1 h and treated with TNFα plus H2O2 for 6-8 h. Cells were harvested, centrifuged at 200×g for 10 min at 4° C. An aliquot of the supernatant was precipitated with 25% TCA, and radioactivity was measured. This represents the amount of ^3H-thymidine released during the oxidative stress induced by TNFα plus H2O2 The cell pellet was solubilized in lysis buffer (0.2% Triton X-100 in 10 mM Tris/EDTA). The intact DNA and fragmented DNA were separated by centrifugation at 13,000×g for 10 min at 4° C. Fragmented DNA was precipitated from the supernatant with 25% TCA. The pellets were resuspended in 1% SDS and radioactivity was measured. This represents the intact DNA in the cells. The amount of DNA fragmentation is expressed as percentage of fragmented DNA over the control, as described in Kim, H. Y., Akbar, M., Lau, A. & Edsall, L. (2000) J. Biol. Chem. 275:35215-35223.
These observations indicate that oxidative stress triggered DNA fragmentation and RPE apoptosis, and that the increase in NPD1 inhibited RPE cell death. […] DNA fragmentation was evaluated after TCA precipitation and expressed as percentage over intact DNA. […]

CC/C=C\C[C@H](O)\C=C/C=C/C=C/[C@H](O)C/C=C\C/C=C\CCC(=O)O [NPD1, 10,17S-docosatriene]
effect on STAT-1 [1]: unaffected
effect on IL-1β-induced expression of COX-2 mRNA [2]: inhibited
inhibition of oxidative stress (TNFα/H2O2)-induced Hoechst-positive cells / apoptosis ([3]; 50 nM added with TNFα 10 ng/ml plus H2O2 (400-800 μM), 14 h): inhibition; also recorded: inhibited apoptosis
inhibition of oxidative stress caused by the lower H2O2 concentration ([3]; 50 nM, TNFα 10 ng/ml plus H2O2 400 μM): almost completely inhibited
effect on DNA fragmentation (3H-thymidine) [4]: inhibited
